The text below walks through data of patent US7550456B2, “Substituted aryl cycloalkanoyl derivatives and methods of their use” (Wyeth, priority 2003, dated 2009).

For orientation: inhibition means the drop in the measured response relative to a control, in per cent. By EC50 is commonly meant the concentration needed to bring the measured effect to its halfway point.

Counter-ions that a name gives are not always drawn.

The target in the first assay is T1, human hNET (Homo sapiens, UniProt P23975).
T1 construct: expressed in transfected cells; host or cells: MDCK-Net6 (MDCK cells, stably transfected)
T1 sequence (P23975 whole entry): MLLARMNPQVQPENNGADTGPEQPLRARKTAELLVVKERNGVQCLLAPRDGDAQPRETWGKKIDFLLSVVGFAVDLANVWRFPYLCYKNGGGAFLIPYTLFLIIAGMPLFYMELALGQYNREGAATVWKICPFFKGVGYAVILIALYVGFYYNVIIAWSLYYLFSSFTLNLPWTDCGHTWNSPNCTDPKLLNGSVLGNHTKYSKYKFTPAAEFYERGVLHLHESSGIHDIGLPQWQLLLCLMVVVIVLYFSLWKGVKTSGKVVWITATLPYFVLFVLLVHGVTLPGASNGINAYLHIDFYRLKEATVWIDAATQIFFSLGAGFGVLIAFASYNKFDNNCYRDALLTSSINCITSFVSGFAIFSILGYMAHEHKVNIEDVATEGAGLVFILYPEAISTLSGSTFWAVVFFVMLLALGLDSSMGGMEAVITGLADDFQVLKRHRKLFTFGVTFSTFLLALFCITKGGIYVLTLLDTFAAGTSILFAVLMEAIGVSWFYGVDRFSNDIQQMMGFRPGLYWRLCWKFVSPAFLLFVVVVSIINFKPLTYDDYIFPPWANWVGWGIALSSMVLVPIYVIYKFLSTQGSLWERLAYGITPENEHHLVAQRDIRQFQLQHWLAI
The experiment in a line: Norepinephrine (NE) uptake assay in MDCK-Net6 cells. It counts as cell-based. As to conditions: 1 μM test compound, [3H]NE uptake, read-out: % Inhibition @ 1 μM (hNET). The protocol: Cells were plated at 300,000/T75 flask and cells were split twice weekly. […] Cells were plated at 250,000 cells/T75 flask and split twice weekly.
Norepinephrine (NE) Uptake Assay
On day 1, cells were plated at 3,000 cells/well in growth medium and maintained in a cell incubator (37° C., 5% CO2). On day 2, growth medium was replaced with 200 μl of assay buffer (25 mM HEPES; 120 mM NaCl; 5 mM KCl; 2.5 mM CaCl2; 1.2 mM MgSO4; 2 mg/ml glucose (pH 7.4, 37° C.)) containing 0.2 mg/ml ascorbic acid and 10 μM pargyline. Plates containing cells with 200 μl of assay buffer were equilibrated for 10 minutes at 37° C. prior to addition of compounds. A stock solution of desipramine was prepared in DMSO (10 mM) and delivered to triplicate wells containing cells for a final test concentration of 1 μM. Data from these wells were used to define non-specific NE uptake (minimum NE uptake). Test compounds were prepared in DMSO (10 mM) and diluted in assay buffer according to test range (1 to 10,000 nM). Twenty-five microliters of assay buffer (maximum NE uptake) or test compound were added directly to triplicate wells containing cells in 200 μl of assay buffer. The cells in assay buffer with test compounds were incubated for 20 minutes at 37° C. […] The reaction was terminated by decanting the supernatant from the plate. The plates containing cells were washed twice with 200 μl assay buffer (37° C.) to remove free radioligand. The plates were then inverted, left to dry for 2 minutes, then reinverted and air-dried for an additional 10 minutes. The cells were lysed in 25 μl of 0.25 N NaOH solution (4° C.), placed on a shake table and vigorously shaken for 5 minutes. After cell lysis, 75 μl of scintillation cocktail was added to each well and the plates were sealed with film tape. The plates were returned to the shake table and vigorously shaken for a minimum of 10 minutes to ensure adequate partitioning of organic and aqueous solutions. The plates were counted in a Wallac Microbeta counter (PerkinElmer) to collect the raw cpm data.
For each experiment, a data stream of cpm values collected from the Wallac Microbeta counter was downloaded to a Microsoft Excel statistical application program. Calculations of EC50 values were made using the transformed-both-sides logistic dose response program written by Wyeth Biometrics Department.
`C[C@@H]1CCC(O)(C(CN2CCNCC2)c2cccc(OC(F)(F)F)c2)C1` (stereo partly drawn) [Example 394, (3R)-3-methyl-1-{2-piperazin-1-yl-1-[3-(trifluoromethoxy)phenyl]ethyl}cyclopentanol dihydrochloride]: the inhibition at 1 µM was determined as 35%. For the molecule `OC1(C(CN2CCNCC2)c2ccc(-c3cc(Cl)ccc3Cl)cc2)CCCCC1` (centres unmarked) [Example 291, 1-[1-(2′,5′-dichloro-1,1′-biphenyl-4-yl)-2-piperazin-1-ylethyl]cyclohexanol dihydrochloride], the inhibition at 1 µM came to 40%.

On to `OC1(C(CN2CCNCC2)c2ccc(OCCc3cccc4ccccc34)cc2)CCCCC1` (centres unmarked) [Example 464, 1-(1-{4-[2-(1-naphthyl)ethoxy]phenyl}-2-piperazin-1-ylethyl)cyclohexanol dihydrochloride], for which the inhibition at 1 µM turned out to be 33%. Still for that read-out and setting: with `CCN1CCN(CC(c2ccc(OC(F)(F)F)cc2)C2(O)CCCCC2)CC1` (centres unmarked) [Example 287, 1-{2-(4-ethylpiperazin-1-yl)-1-[4-(trifluoromethoxy)phenyl]ethyl}cyclohexanol dihydrochloride] the figure was 60.8%; with `C[C@@H]1CCC(O)(C(CN2CCN(C)CC2)c2cccc(OC(F)(F)F)c2)C1` (stereo partly drawn) [Example 395, (3R)-3-methyl-1-{2-(4-methylpiperazin-1-yl)-1-[3-(trifluoromethoxy)phenyl]ethyl}cyclopentanol dihydrochloride], 92%. As for `CN1CCN(CC(c2ccc(OCc3ccc(C(F)(F)F)cc3)c(Cl)c2)C2(O)CCCCC2)CC1` (centres unmarked) [Example 420, 1-[1-(3-chloro-4-{[4-(trifluoromethyl)benzyl]oxy}phenyl)-2-(4-methylpiperazin-1-yl)ethyl]cyclohexanol dihydrochloride], the inhibition at 1 µM is 68%.

Turning to `CN1CCN(C[C@H](c2ccc(OCc3ccccc3)c(Cl)c2)C2(O)CCCCC2)CC1` [Example 326, 1-[(1S)-1-[4-(benzyloxy)-3-chlorophenyl]-2-(4-methylpiperazin-1-yl)ethyl]cyclohexanol dihydrochloride], the inhibition at 1 µM was 99.7%.

Turning to `OC1(C(CN2CCNCC2)c2ccc(CCc3ccccc3)cc2)CCCCC1` (centres unmarked) [Example 409, 1-{1-[4-(2-phenylethyl)phenyl]-2-piperazin-1-ylethyl}cyclohexanol dihydrochloride], the inhibition at 1 µM is 62%.

On to `Cc1ccc(COc2ccc(C(CN3CCNCC3)C3(O)CCCCC3)cc2F)cc1` (centres unmarked) [Example 417, 1-(1-{3-fluoro-4-[(4-methylbenzyl)oxy]phenyl}-2-piperazin-1-ylethyl)cyclohexanol dihydrochloride], for which the inhibition at 1 µM turned out to be 78%. On to `CN1CCN(C[C@@H](c2ccc(OCc3ccccc3)c(Cl)c2)C2(O)CCCCC2)CC1` [Example 325, 1-[(1R)-1-[4-(benzyloxy)-3-chlorophenyl]-2-(4-methylpiperazin-1-yl)ethyl]cyclohexanol dihydrochloride], for which the inhibition at 1 µM amounted to 93.9%.

For the molecule `CC[C@H]1CN(C[C@H](c2cccc(OC(F)(F)F)c2)C2(O)CCCCC2)CCN1C` [Example 351, 1-{(1S)-2-[(3S)-3-ethyl-4-methylpiperazin-1-yl]-1-[3-(trifluoromethoxy)phenyl]ethyl}cyclohexanol dihydrochloride], the inhibition at 1 µM was determined as 61%. As for `CN1CCN(CC(c2ccc(OCc3ccccc3)c(C(F)(F)F)c2)C2(O)CCCCC2)CC1` (centres unmarked) [Example 264, 1-[1-[4-(benzyloxy)-3-(trifluoromethyl)phenyl]-2-(4-methylpiperazin-1-yl)ethyl]cyclohexanol dihydrochloride], the inhibition at 1 µM stood at 89%.

In the case of `OC1(C(CN2CCNCC2)c2ccc(-c3cccc(Cl)c3)cc2)CCC1` (centres unmarked) [Example 182, 1-[1-(3′-chloro-1,1′-biphenyl-4-yl)-2-piperazin-1-ylethyl]cyclobutanol dihydrochloride], the inhibition at 1 µM was 43%. As for `C=Cc1cccc(C(CN2CCNCC2)C2(O)CCCCC2)c1` (centres unmarked) [Example 162, 1-[2-piperazin-1-yl-1-(3-vinylphenyl)ethyl]cyclohexanol dihydrochloride], the inhibition at 1 µM was 78%. On to `OC1(C(CN2CCN(CC3CCCCC3)CC2)c2cccc(Oc3ccccc3)c2)CCCCC1` (centres unmarked) [Example 313, 1-[2-[4-(cyclohexylmethyl)piperazin-1-yl]-1-(3-phenoxyphenyl)ethyl]cyclohexanol dihydrochloride], for which the inhibition at 1 µM stood at 57.3%.

With `COc1cccc(COc2ccc(C(CN3CCNCC3)C3(O)CCCCC3)cc2Cl)c1` (centres unmarked) [Example 454, 1-(1-{3-chloro-4-[(3-methoxybenzyl)oxy]phenyl}-2-piperazin-1-ylethyl)cyclohexanol dihydrochloride], the inhibition at 1 µM came to 99%.

On to `OC1(C(CN2CCNCC2)c2cccc(-c3cccc(Cl)c3)c2)CCCCC1` (centres unmarked) [Example 139, 1-[1-(3′-chloro-1,1′-biphenyl-3-yl)-2-piperazin-1-ylethyl]cyclohexanol dihydrochloride], for which the inhibition at 1 µM came out at 45%. For the molecule `C[C@@H]1CN(C[C@H](c2cccc(OC(F)(F)F)c2)C2(O)CCCCC2)CCN1` [Example 369, 1-{(1S)-2-[(3R)-3-methylpiperazin-1-yl]-1-[3-(trifluoromethoxy)phenyl]ethyl}cyclohexanol dihydrochloride], the inhibition at 1 µM worked out at 90%. Still for that read-out and setting: for `COc1cc(C(CN2CCNCC2)C2(O)CCCCC2)ccc1OCc1ccc(Br)cc1F` (centres unmarked) [Example 446, 1-(1-{4-[(4-bromo-2-fluorobenzyl)oxy]-3-methoxyphenyl}-2-piperazin-1-ylethyl)cyclohexanol] the value was 69%. Take `OC1(C(CN2CCNCC2)c2ccc(OCc3ccccc3)c(OC(F)(F)F)c2)CCCCC1` (centres unmarked) [Example 268, 1-{1-[4-(benzyloxy)-3-(trifluoromethoxy)phenyl]-2-piperazin-1-ylethyl}cyclohexanol dihydrochloride]: the inhibition at 1 µM came out at 84%. Same read-out and setting: with `OC1(C(CN2CCNCC2)c2cccc(-c3cccc(OC(F)(F)F)c3)c2)CCCCC1` (centres unmarked) [Example 248, 1-{2-piperazin-1-yl-1-[3′-(trifluoromethoxy)-1,1′-biphenyl-3-yl]ethyl}cyclohexanol dihydrochloride] the figure was 7%; with `O=[N+]([O-])c1cccc(-c2ccc(C(CN3CCNCC3)C3(O)CCCCC3)cc2)c1` (centres unmarked) [Example 169, 1-[1-(3′-nitro-1,1′-biphenyl-4-yl)-2-piperazin-1-ylethyl]cyclohexanol dihydrochloride], 69%. Still for that read-out and setting: with `OC1(C(CN2CCNCC2)c2cccc(-c3ccccc3)c2)CCCCC1` (centres unmarked) [Example 136, 1-[1-(1,1′-biphenyl-3-yl)-2-piperazin-1-ylethyl]cyclohexanol dihydrochloride] the figure was 62%.

Still in this assay, the particulars now being: 10 μM test compound (stated in the cell), [3H]NE uptake.
`COc1ccc(C(CN2CCN(C)CC2)C2(O)CCCCC2)cc1-c1ccc(Cl)c(Cl)c1` (centres unmarked) [Example 255, 1-[1-(3′,4′-dichloro-6-methoxy-1,1′-biphenyl-3-yl)-2-(4-methylpiperazin-1-yl)ethyl]cyclohexanol dihydrochloride] had an inhibition at 10 µM of 70.7%.

The assay is the same for the next values; noted with them: MDCK-Net6, read-out: % Inhibition @ 1 μM (hNET), 1 μM test compound, [3H]NE uptake.
For `OC1(C(CN2CCNCC2)c2cccc(-c3ccccc3F)c2)CCCCC1` (centres unmarked) [Example 140, 1-[1-(2′-fluoro-1,1′-biphenyl-3-yl)-2-piperazin-1-ylethyl]cyclohexanol maleate], the inhibition at 1 µM stood at 52%.

Still in this assay, the particulars now being: [3H]NE uptake, test range 1 to 10,000 nM.
For the molecule `C=Cc1cccc(C(CN2CCNCC2)C2(O)CCCCC2)c1` (centres unmarked) [Example 162, 1-[2-piperazin-1-yl-1-(3-vinylphenyl)ethyl]cyclohexanol dihydrochloride], the EC50 worked out at 410 nM.

On to `OC1(C(CN2CCNCC2)c2cccc(-c3ccccc3F)c2)CCCCC1` (centres unmarked) [Example 140, 1-[1-(2′-fluoro-1,1′-biphenyl-3-yl)-2-piperazin-1-ylethyl]cyclohexanol maleate], for which the EC50 amounted to 870 nM. The molecule `O=[N+]([O-])c1cccc(-c2ccc(C(CN3CCNCC3)C3(O)CCCCC3)cc2)c1` (centres unmarked) [Example 169, 1-[1-(3′-nitro-1,1′-biphenyl-4-yl)-2-piperazin-1-ylethyl]cyclohexanol dihydrochloride] had an EC50 of 850 nM. For the molecule `OC1(C(CN2CCNCC2)c2cccc(-c3ccccc3)c2)CCCCC1` (centres unmarked) [Example 136, 1-[1-(1,1′-biphenyl-3-yl)-2-piperazin-1-ylethyl]cyclohexanol dihydrochloride], the EC50 is 1000 nM.
